Source: patent US20220411372A1, “SMALL-MOLECULE INHIBITORS FOR THE B-CATENIN/B-CELL LYMPHOMA 9 PROTEIN-PROTEIN INTERACTION” (H. Lee Moffitt Cancer Center and Research Institute, Inc., priority 2019, published 2022)

Biological target: T1, β-catenin/BCL9 PPI (Homo sapiens, UniProt P35222)
T1 construct: Full-length β-catenin (residues 1-781) were cloned into a pET-28b vector; made in house; host or cells: E. coli BL21 DE3 (β-catenin); BCL9 peptide synthesized by InnoPep Inc
T1 sequence (P35222 1-781): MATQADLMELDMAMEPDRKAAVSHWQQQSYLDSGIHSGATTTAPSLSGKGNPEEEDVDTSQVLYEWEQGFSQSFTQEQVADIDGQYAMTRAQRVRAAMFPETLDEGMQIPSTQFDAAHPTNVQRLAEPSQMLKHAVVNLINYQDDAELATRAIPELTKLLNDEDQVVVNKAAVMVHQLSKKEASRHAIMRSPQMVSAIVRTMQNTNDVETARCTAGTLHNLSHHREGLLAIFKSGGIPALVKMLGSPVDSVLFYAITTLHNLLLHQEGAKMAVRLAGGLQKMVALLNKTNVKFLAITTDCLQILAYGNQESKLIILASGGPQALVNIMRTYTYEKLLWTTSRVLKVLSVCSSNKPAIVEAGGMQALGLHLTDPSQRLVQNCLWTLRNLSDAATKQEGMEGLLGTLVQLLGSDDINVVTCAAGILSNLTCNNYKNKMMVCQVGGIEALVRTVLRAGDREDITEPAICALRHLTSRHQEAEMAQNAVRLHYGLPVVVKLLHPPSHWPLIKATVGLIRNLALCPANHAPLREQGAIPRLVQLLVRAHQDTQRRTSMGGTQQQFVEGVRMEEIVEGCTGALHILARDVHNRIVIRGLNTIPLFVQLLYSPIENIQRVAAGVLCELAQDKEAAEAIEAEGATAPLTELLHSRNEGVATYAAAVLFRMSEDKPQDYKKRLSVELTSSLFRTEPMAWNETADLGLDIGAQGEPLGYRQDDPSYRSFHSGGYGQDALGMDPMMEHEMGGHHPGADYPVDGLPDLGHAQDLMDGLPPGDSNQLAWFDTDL
Experiment: AlphaScreen competitive inhibition assay of the β-catenin/BCL9 PPI
Type: binding
Conditions: Table 1, inhibitors 1-14; read-out: Ki
Procedure: AlphaScreen Assays of β-Catenin and BCL9 Interaction. Experiments were performed in white opaque 384-well plates from PerkinElmer (Waltham, Mass.), and the samples were read on a Synergy 2 plate reader (Biotek, Winooski, Vt.) with excitation at 680 nm and emission at 570 nm. The standard AlphaScreen protocol was used with a sensitivity setting of 200. All dilutions were made in 1× assay buffer containing 25 mM Hepes (pH 7.4), 100 mM NaCl, 0.01% Triton X-100 and 0.1% BSA to minimize nonspecific interactions.
For the β-catenin/BCL9 assay, 5 nM biotinylated BCL9 and 40 nM His6-tagged β-catenin were incubated in assay buffer at 4° C. for 30 min. For the β-catenin/E-cadherin assay, 10 nM biotinylated human E-cadherin, and 40 nM His6-tagged human β-catenin were added and incubated in assay buffer at 4° C. for 30 min. Different concentrations of the tested inhibitor were added and incubated in 20 μL assay buffer at 4° C. for another 1 h. All of the assay plates were covered and gently mixed on an orbital shaker. The donor and acceptor beads were then added to the plates to a final concentration of 10 μg/mL in […]. The mixture was incubated for 1 h at 4° C. before detection. The IC50 value was determined by nonlinear least-square analysis of GraphPad Prism 5.0. […] All of the experiments were performed in triplicate and carried out in the presence of 1% DMSO for small-molecule inhibitors. Each compound was assayed at least by two independent experiments. The results were expressed as mean±standard deviation. The inhibitor selectivity for β-catenin/BCL9 over β-catenin/E-canderin interactions was defined as the ratio of the respective Ki value of β-catenin/E-cadherin interactions over that of β-catenin/BCL9 interactions.

Ki, ≤ 50 µM:
CC(C)c1ccc(CNC(=O)[C@@H]2CCCN(c3cccc(OC(C)(C)C(=O)O)c3)C2)cc1 [Compound 3, (R)-2-(3-(3-((4-isopropylbenzyl)carbamoyl)piperidin-1-yl)phenoxy)-2-methylpropanoic acid]
CC(C)c1ccc(CN(C(=O)[C@H]2CCCN(c3cccc(OC(C)(C)C(=O)O)c3)C2)C(C)C)cc1 [Compound 10, (S)-2-(3-(3-(isopropyl(4-isopropylbenzyl)carbamoyl)piperidin-1-yl)phenoxy)-2-methylpropanoic acid]
CC(C)c1ccc(CN(C(=O)[C@@H]2CCCN(c3cccc(OC(C)(C)C(=O)O)c3)C2)C2CC2)cc1 [Compound 11, (R)-2-(3-(3-(cyclopropyl(4-isopropylbenzyl)carbamoyl)piperidin-1-yl)phenoxy)-2-methylpropanoic acid]
CC(C)c1ccc(CCNC(=O)[C@@H]2CCCN(c3cccc(OC(C)(C)C(=O)O)c3)C2)cc1 [Compound 13, (R)-2-(3-(3-((4-isopropylphenethyl)carbamoyl)piperidin-1-yl)phenoxy)-2-methylpropanoic acid]

Ki, ≤ 90 µM:
CC(C)c1ccc(CCNC(=O)[C@H]2CCCN(c3cccc(OC(C)(C)C(=O)O)c3)C2)cc1 [Compound 14, (S)-2-(3-(3-((4-isopropylphenethyl)carbamoyl)piperidin-1-yl)phenoxy)-2-methylpropanoic acid]

Ki, > 90 µM:
CC(C)c1ccc(COC(=O)[C@H]2CCCN(c3cccc(OC(C)(C)C(=O)O)c3)C2)cc1 [Compound 2, (S)-2-(3-(3-(((4-isopropylbenzyl)oxy)carbonyl)piperidin-1-yl)phenoxy)-2-methylpropanoic acid]
CC(C)c1ccc(CNC(=O)[C@H]2CCCN(c3cccc(OC(C)(C)C(=O)O)c3)C2)cc1 [Compound 4, (S)-2-(3-(3-((4-isopropylbenzyl)carbamoyl)piperidin-1-yl)phenoxy)-2-methylpropanoic acid]
CCN(Cc1ccc(C(C)C)cc1)C(=O)[C@@H]1CCCN(c2cccc(OC(C)(C)C(=O)O)c2)C1 [Compound 7, (R)-2-(3-(3-(ethyl(4-isopropylbenzyl)carbamoyl)piperidin-1-yl)phenoxy)-2-methylpropanoic acid]
CCN(Cc1ccc(C(C)C)cc1)C(=O)[C@H]1CCCN(c2cccc(OC(C)(C)C(=O)O)c2)C1 [Compound 8, (S)-2-(3-(3-(ethyl(4-isopropylbenzyl)carbamoyl)piperidin-1-yl)phenoxy)-2-methylpropanoic acid]
CC(C)c1ccc(CN(C(=O)[C@@H]2CCCN(c3cccc(OC(C)(C)C(=O)O)c3)C2)C(C)C)cc1 [Compound 9, (R)-2-(3-(3-(isopropyl(4-isopropylbenzyl)carbamoyl)piperidin-1-yl)phenoxy)-2-methylpropanoic acid]
CC(C)c1ccc(CN(C(=O)[C@H]2CCCN(c3cccc(OC(C)(C)C(=O)O)c3)C2)C2CC2)cc1 [Compound 12, (S)-2-(3-(3-(cyclopropyl(4-isopropylbenzyl)carbamoyl)piperidin-1-yl)phenoxy)-2-methylpropanoic acid]

Ki, < 50 µM:
CC(C)c1ccc(CN(C)C(=O)[C@@H]2CCCN(c3cccc(OC(C)(C)C(=O)O)c3)C2)cc1 [Compound 5, (R)-2-(3-(3-((4-isopropylbenzyl)(methyl)carbamoyl)piperidin-1-yl)phenoxy)-2-methylpropanoic acid]

Same assay, conditions: Table 2, inhibitors 15-26; read-out: Ki

Ki, ≤ 5 µM:
CC(C)c1ccc(CN(C(=O)[C@@H]2CCCN(c3cccc(OC(C)(C)C(=O)N4CCNCC4)c3)C2)C2CC2)cc1 [Compound 25, (R)-4-(2-(3-(3-(cyclopropyl(4-isopropylbenzyl)carbamoyl)piperidin-1-yl)phenoxy)-2-methylpropanoyl)piperazin-1-ium chloride]

Ki, ≤ 10 µM:
CC(C)c1ccc(COC(=O)[C@@H]2CCCN(c3cccc(OC(C)(C)C(=O)N4CCNCC4)c3)C2)cc1 [Compound 15, (R)-4-(2-(3-(3-(((4-isopropylbenzyl)oxy)carbonyl)piperidin-1-yl)phenoxy)-2-methylpropanoyl)piperazin-1-ium chloride]
CC(C)c1ccc(COC(=O)[C@H]2CCCN(c3cccc(OC(C)(C)C(=O)N4CCNCC4)c3)C2)cc1 [Compound 16, (S)-4-(2-(3-(3-(((4-isopropylbenzyl)oxy)carbonyl)piperidin-1-yl)phenoxy)-2-methylpropanoyl)piperazin-1-ium chloride]
CC(C)c1ccc(CNC(=O)[C@@H]2CCCN(c3cccc(OC(C)(C)C(=O)N4CCNCC4)c3)C2)cc1 [Compound 17, (R)-4-(2-(3-(3-((4-isopropylbenzyl)carbamoyl)piperidin-1-yl)phenoxy)-2-methylpropanoyl)piperazin-1-ium chloride]
CC(C)c1ccc(CN(C)C(=O)[C@H]2CCCN(c3cccc(OC(C)(C)C(=O)N4CCNCC4)c3)C2)cc1 [Compound 20, (S)-4-(2-(3-(3-((4-isopropylbenzyl)(methyl)carbamoyl)piperidin-1-yl)phenoxy)-2-methylpropanoyl)piperazin-1-ium chloride]
CC(C)c1ccc(CN(C(=O)[C@@H]2CCCN(c3cccc(OC(C)(C)C(=O)N4CCNCC4)c3)C2)C(C)C)cc1 [Compound 23, (R)-4-(2-(3-(3-(isopropyl(4-isopropylbenzyl)carbamoyl)piperidin-1-yl)phenoxy)-2-methylpropanoyl)piperazin-1-ium chloride]
CC(C)c1ccc(CN(C(=O)[C@H]2CCCN(c3cccc(OC(C)(C)C(=O)N4CCNCC4)c3)C2)C(C)C)cc1 [Compound 24, (S)-4-(2-(3-(3-(isopropyl(4-isopropylbenzyl)carbamoyl)piperidin-1-yl)phenoxy)-2-methylpropanoyl)piperazin-1-ium chloride]
CC(C)c1ccc(CN(C(=O)[C@H]2CCCN(c3cccc(OC(C)(C)C(=O)N4CCNCC4)c3)C2)C2CC2)cc1 [Compound 26, (S)-4-(2-(3-(3-(cyclopropyl(4-isopropylbenzyl)carbamoyl)piperidin-1-yl)phenoxy)-2-methylpropanoyl)piperazin-1-ium chloride]

Ki, ≤ 30 µM:
CC(C)c1ccc(CNC(=O)[C@H]2CCCN(c3cccc(OC(C)(C)C(=O)N4CCNCC4)c3)C2)cc1 [Compound 18, (S)-4-(2-(3-(3-((4-isopropylbenzyl)carbamoyl)piperidin-1-yl)phenoxy)-2-methylpropanoyl)piperazin-1-ium chloride]
CC(C)c1ccc(CN(C)C(=O)[C@@H]2CCCN(c3cccc(OC(C)(C)C(=O)N4CCNCC4)c3)C2)cc1 [Compound 19, (R)-4-(2-(3-(3-((4-isopropylbenzyl)(methyl)carbamoyl)piperidin-1-yl)phenoxy)-2-methylpropanoyl)piperazin-1-ium chloride]
CCN(Cc1ccc(C(C)C)cc1)C(=O)[C@@H]1CCCN(c2cccc(OC(C)(C)C(=O)N3CCNCC3)c2)C1 [Compound 21, (R)-4-(2-(3-(3-(ethyl(4-isopropylbenzyl)carbamoyl)piperidin-1-yl)phenoxy)-2-methylpropanoyl)piperazin-1-ium chloride]
CCN(Cc1ccc(C(C)C)cc1)C(=O)[C@H]1CCCN(c2cccc(OC(C)(C)C(=O)N3CCNCC3)c2)C1 [Compound 22, (S)-4-(2-(3-(3-(ethyl(4-isopropylbenzyl)carbamoyl)piperidin-1-yl)phenoxy)-2-methylpropanoyl)piperazin-1-ium chloride]
